Measured values published in patent US9126953B2, “Triazole compounds that modulate HSP90 activity” (Synta Pharmaceuticals Corp., priority 2008, dated 2015).

The molecules below were run on MV-4-11 cells (assay: Her2 degradation Method 2: MV-4-11 cell survival, Cell Counting Kit-8 (Table 2: inhibition of Hsp90)). Details: Homo sapiens, MV4-11, 72 hours, cell survival by Cell Counting Kit-8, text calls it IC50 for Her2 degradation, read-out: IC50 range of compounds of the invention for inhibition of Hsp90, IC50.
Assay type: cell-based
Description: MV-4-11 cells (20,000 cells/well) were cultured in 96-well plates and maintained at 37° C. for several hours. The cells were treated with a compound of the invention or 17AAG (a positive control) at various concentrations and incubated at 37° C. for 72 hours. Cell survival was measured with Cell Counting Kit-8 (Dojindo Laboratories, Cat. # CK04).

Row | SMILES | IC50 [µM]
1 | NC(=O)c1nnc(-c2cc3c(cc2O)OCO3)n1-c1ccc(N2CCOCC2)cc1 [Compound 1, 5-(6-hydroxybenzo[d][1,3]-dioxol-5-yl)-4-(4-morpholinophenyl)-4H-1,2,4-triazole-3-carboxamide] | 20 to 50
2 | NC(=O)c1nnc(-c2cc3c(cc2O)OCCC3)n1-c1ccc2c(c1)OCO2 [Compound 2, 4-(benzo[d][1,3]dioxol-5-yl)-5-(7-hydroxychroman-6-yl)-4H-1,2,4-triazole-3-carboxamide] | ≤ 10
3 | COc1ccc(-n2c(C(N)=O)nnc2-c2cc3c(cc2O)OCC3)cc1 [Compound 3, 5-(6-hydroxy-2,3-dihydrobenzofuran-5-yl)-4-(4-methoxyphenyl)-4H-1,2,4-triazole-3-carboxamide] | 20 to 50
4 | COc1ccc(-n2c(C(N)=O)nnc2-c2cc3c(cc2O)OCCC3)cc1 [Compound 4, 5-(7-hydroxychroman-6-yl)-4-(4-methoxyphenyl)-4H-1,2,4-triazole-3-carboxamide] | > 50
5 | COc1ccc(-n2c(C(N)=O)nnc2-c2cc3c(cc2O)CCC3)cc1 [Compound 5, 5-(6-hydroxy-2,3-dihydro-1H-inden-5-yl)-4-(4-methoxyphenyl)-4H-1,2,4-triazole-3-carboxamide] | 10 to 20
6 | COc1ccc(-n2c(C(N)=O)nnc2-c2c(O)ccc3c2CCCC3)cc1 [Compound 6, 5-(2-hydroxy-5,6,7,8-tetrahydronaphthalen-1-yl)-4-(4-methoxyphenyl)-4H-1,2,4-triazole-3-carboxamide] | 20 to 50
7 | COc1ccc(-n2c(C(N)=O)nnc2-c2c(O)ccc3ccccc23)cc1 [Compound 7, 5-(2-hydroxynaphthalen-1-yl)-4-(4-methoxyphenyl)-4H-1,2,4-triazole-3-carboxamide] | 20 to 50
8 | COc1ccc(-n2c(C(N)=O)nnc2-c2ccc3c(c2O)CCCC3)cc1 [Compound 8, 5-(1-hydroxy-5,6,7,8-tetrahydronaphthalen-2-yl)-4-(4-methoxyphenyl)-4H-1,2,4-triazole-3-carboxamide] | > 50

What follows are molecules tested on Her2 (assay: Degradation of Her2 in BT-474 cells, Method 1 (Western blot)). Details: 0.5 μM, overnight, positive control.
Assay type: cell-based, human
Description: Human high-Her2 breast carcinoma BT474 (HTB-20), SK-BR-3 (HTB-30) and MCF-7 breast carcinoma (HTB-22) from American Type Culture Collection, VA, USA were grown in Dulbecco's modified Eagle's medium with 4 mM L-glutamine and antibiotics (100 IU/ml penicillin and 100 μg/ml streptomycine; GibcoBRL). To obtain exponential cell growth, cells were trypsinized, counted and seeded at a cell density of 0.5×10^6 cells/ml regularly, every 3 days. All experiments were performed on day 1 after cell passage.
BT-474 cells are treated with 0.5 μM, 2 μM, or 5 μM of 17AAG (a positive control) or 0.5 μM, 2 μM, or 5 μM of a compound of the invention overnight in DMEM medium. After treatment, each cytoplasmic sample is prepared from 1×10^6 cells by incubation of cell lysis buffer (#9803, Cell Signaling Technology) on ice for 10 minutes. The resulting supernatant used as the cytosol fractions is dissolved with sample buffer for SDS-PAGE and run on a SDS-PAGE gel, blotted onto a nitrocellulose membrane by using semi-dry transfer. Non-specific binding to nitrocellulose is blocked with 5% skim milk in TBS with 0.5% Tween at room temperature for 1 hour, then probed with anti-Her2/ErB2 mAb (rabbit IgG, #2242, Cell Signaling) and anti-Tubulin (T9026, Sigma) as housekeeping control protein. […]

Row | SMILES | degradation of Her2
9 | C=CCNC1=C2C[C@@H](C)C[C@H](OC)[C@H](O)[C@@H](C)/C=C(\C)[C@H](OC(N)=O)[C@@H](OC)/C=C\C=C(/C)C(=O)NC(=CC1=O)C2=O [Compound 17AAG, 17-allylamino-17-demethoxygeldanamycin] | partial degradation
